Consider 6 molecules from ChEMBL document CHEMBL5120752, “Galangin 3-benzyl-5-methylether derivatives function as an adiponectin synthesis-promoting peroxisome proliferator-activated receptor γ partial agonist” (Bioorg Med Chem, 2022).

The subject of assay [1] is Mesenchymal stem cells. Kind of assay: Induction of adiponectin synthesis in human differentiated BMMSC cells at 10 uM measured after 5 days in the presence of IDX induction medium by ELISA. The class given is functional, cell-based. Conditions: time 5.0 day. (In general: An ELISA detects its analyte on a solid surface through an enzyme-linked reagent.)
Assay [2] deals with Mesenchymal stem cells. Kind of assay: Induction of adiponectin synthesis in human differentiated BMMSC cells assessed as lipid accumulation at 10 uM measured after 5 days in the presence of IDX induction medium by Oil red O staining based inverted phase contrast microscope analysis. The class given is functional, cell-based. The settings on record: time 5.0 day.
The subject of assay [3] is Mesenchymal stem cells. Kind of assay: Induction of adiponectin synthesis in human differentiated BMMSC cells assessed as fold increase in adiponectin level at 10 uM measured after 5 days in the presence of IDX induction medium by ELISA. Type of assay: functional. Conditions: time 5 day.
Assay [4] relates to Mesenchymal stem cells. Kind of assay: Upregulation of adiponectin mRNA expression in human BMMSC cells at 10 uM measured after 3 days by qRT-PCR analysis. Type of assay: functional, cell-based. The settings on record: time 3.0 day. A general note: Real-time PCR tracks product formation cycle by cycle.
Assay [5] concerns Mesenchymal stem cells. Kind of assay: Upregulation of FABP4 mRNA expression in human BMMSC cells at 10 uM measured after 3 days by qRT-PCR analysis. Type of assay: functional, cell-based. Conditions: time 3.0 day.
Assay [6] deals with Mesenchymal stem cells. Kind of assay: Upregulation of PPARgamma mRNA expression in human BMMSC cells at 10 uM measured after 3 days by qRT-PCR analysis. Type of assay: functional, cell-based. Conditions: time 3.0 day.
The subject of assay [7] is Mesenchymal stem cells. Kind of assay: Induction of adiponectin synthesis in human differentiated BMMSC cells measured after 5 days in the presence of IDX induction medium by ELISA. The class given is functional, cell-based. The settings on record: 120 h.
Assay [8] deals with Estrogen receptor beta (Homo sapiens) (UniProt Q92731). Kind of assay: Binding affinity to ERbeta (unknown origin) at 10 uM by Lanthascreen TR-FRET assay relative to control. On the technique in general: Time-resolved FRET reads energy transfer from a long-lived donor to a nearby acceptor.
Estrogen receptor beta (Homo sapiens), sequence (Q92731 whole entry): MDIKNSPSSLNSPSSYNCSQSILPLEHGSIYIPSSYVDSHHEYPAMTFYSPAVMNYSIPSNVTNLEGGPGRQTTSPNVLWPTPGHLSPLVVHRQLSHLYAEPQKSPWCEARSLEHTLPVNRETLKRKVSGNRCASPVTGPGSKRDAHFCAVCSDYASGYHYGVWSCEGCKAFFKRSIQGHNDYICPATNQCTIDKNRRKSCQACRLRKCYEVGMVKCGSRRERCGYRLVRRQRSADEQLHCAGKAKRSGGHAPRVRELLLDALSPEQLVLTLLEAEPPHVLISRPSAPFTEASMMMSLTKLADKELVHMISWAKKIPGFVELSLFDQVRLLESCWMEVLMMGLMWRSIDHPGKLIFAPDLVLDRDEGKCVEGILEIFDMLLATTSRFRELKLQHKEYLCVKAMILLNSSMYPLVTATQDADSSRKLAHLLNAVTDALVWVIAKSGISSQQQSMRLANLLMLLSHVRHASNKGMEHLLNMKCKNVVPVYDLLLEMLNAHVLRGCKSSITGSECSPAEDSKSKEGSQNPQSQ
Assay [9] addresses T1, Peroxisome proliferator-activated receptor gamma (Homo sapiens, UniProt P37231).
T1 sequence (P37231 whole entry): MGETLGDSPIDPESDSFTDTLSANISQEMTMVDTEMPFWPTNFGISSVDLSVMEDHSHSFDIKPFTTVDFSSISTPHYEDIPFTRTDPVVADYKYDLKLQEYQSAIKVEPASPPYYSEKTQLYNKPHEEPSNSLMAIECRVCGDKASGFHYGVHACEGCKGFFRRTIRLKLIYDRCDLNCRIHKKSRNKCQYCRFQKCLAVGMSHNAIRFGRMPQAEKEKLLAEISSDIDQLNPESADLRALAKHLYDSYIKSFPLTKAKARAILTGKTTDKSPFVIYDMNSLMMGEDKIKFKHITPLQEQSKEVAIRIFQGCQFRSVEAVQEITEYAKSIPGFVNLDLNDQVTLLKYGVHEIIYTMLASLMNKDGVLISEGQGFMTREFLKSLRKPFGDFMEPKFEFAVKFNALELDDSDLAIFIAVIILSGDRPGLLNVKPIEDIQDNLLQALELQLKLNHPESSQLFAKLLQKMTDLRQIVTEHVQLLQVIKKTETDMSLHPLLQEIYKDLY
Kind of assay: Binding affinity to PPARgamma (unknown origin) assessed as inhibition constant by Lanthascreen TR-FRET assay relative to control.

Active and inactive are the calls of the source. The rule behind the calls is not given here.

As to `COc1cc(O)cc2oc(-c3ccccc3)c(OCc3ccccc3)c(=O)c12`, the outcome in the assay with Mesenchymal stem cells [1], with Mesenchymal stem cells [2], with Mesenchymal stem cells [4], with Mesenchymal stem cells [5] and with Mesenchymal stem cells [6] was Active. The “fold change (FC)” value in the assay on Mesenchymal stem cells [3] is recorded as 2.88. Besides, in the assay with Mesenchymal stem cells [7], the EC50 is 14.9 µM.

Regarding `COc1cc(O)c2c(=O)c(OCc3ccccc3)c(-c3ccccc3)oc2c1`, in the assay on Mesenchymal stem cells [1], the outcome was Active.

As to `COc1cc(OC)c2c(=O)c(OCc3ccccc3)c(-c3ccccc3)oc2c1`, the outcome with Mesenchymal stem cells [1], with Mesenchymal stem cells [2], in the assay on Mesenchymal stem cells [4], in the assay on Mesenchymal stem cells [5] and in the assay with Mesenchymal stem cells [6] was Active.

Consider `COc1cc(OC(=O)c2ccccc2)cc2oc(-c3ccccc3)c(OCc3ccccc3)c(=O)c12`, for which, in the assay on Mesenchymal stem cells [1], the result was Active. In addition, in the assay with Mesenchymal stem cells [3], the “fold change (FC)” value was found to be 2.76.

With `COc1cc(OC(=O)c2ccccc2)cc2oc(-c3ccccc3)c(O)c(=O)c12`, the result with Mesenchymal stem cells [1] was Active.

For `O=c1c(O)c(-c2ccccc2)oc2cc(O)cc(O)c12` [GALANGIN], the result in the assay on Mesenchymal stem cells [1], in the assay on Mesenchymal stem cells [2], with Mesenchymal stem cells [4], in the assay on Mesenchymal stem cells [5] and in the assay with Mesenchymal stem cells [6] was Active. The molecule also came in with an Activity in assay [8] of 79.4%. Further, in assay [9], the Ki is 5.6 µM.

Broadly, the EC50 is the concentration needed to bring the measured effect to its halfway point. As a reminder, the Ki is a dissociation constant, usually derived from enzyme kinetics or from competition with a known ligand.
